Source: ChEMBL document CHEMBL5154776, “Discovery of Potent and Orally Bioavailable Platelet-Derived Growth Factor Receptor (PDGFR) Inhibitors for the Treatment of Osteosarcoma” (J Med Chem, 2022)
Blank lines part the entries; values can stand above or below the compound they belong to.

Tests used:
[1] = biological target: T1, Platelet-derived growth factor receptor beta (Homo sapiens, UniProt P09619); assay: Inhibition of PDGFRbeta (unknown origin) at 100 nM by caliper mobility shift assay relative to control
T1 sequence (P09619 whole entry): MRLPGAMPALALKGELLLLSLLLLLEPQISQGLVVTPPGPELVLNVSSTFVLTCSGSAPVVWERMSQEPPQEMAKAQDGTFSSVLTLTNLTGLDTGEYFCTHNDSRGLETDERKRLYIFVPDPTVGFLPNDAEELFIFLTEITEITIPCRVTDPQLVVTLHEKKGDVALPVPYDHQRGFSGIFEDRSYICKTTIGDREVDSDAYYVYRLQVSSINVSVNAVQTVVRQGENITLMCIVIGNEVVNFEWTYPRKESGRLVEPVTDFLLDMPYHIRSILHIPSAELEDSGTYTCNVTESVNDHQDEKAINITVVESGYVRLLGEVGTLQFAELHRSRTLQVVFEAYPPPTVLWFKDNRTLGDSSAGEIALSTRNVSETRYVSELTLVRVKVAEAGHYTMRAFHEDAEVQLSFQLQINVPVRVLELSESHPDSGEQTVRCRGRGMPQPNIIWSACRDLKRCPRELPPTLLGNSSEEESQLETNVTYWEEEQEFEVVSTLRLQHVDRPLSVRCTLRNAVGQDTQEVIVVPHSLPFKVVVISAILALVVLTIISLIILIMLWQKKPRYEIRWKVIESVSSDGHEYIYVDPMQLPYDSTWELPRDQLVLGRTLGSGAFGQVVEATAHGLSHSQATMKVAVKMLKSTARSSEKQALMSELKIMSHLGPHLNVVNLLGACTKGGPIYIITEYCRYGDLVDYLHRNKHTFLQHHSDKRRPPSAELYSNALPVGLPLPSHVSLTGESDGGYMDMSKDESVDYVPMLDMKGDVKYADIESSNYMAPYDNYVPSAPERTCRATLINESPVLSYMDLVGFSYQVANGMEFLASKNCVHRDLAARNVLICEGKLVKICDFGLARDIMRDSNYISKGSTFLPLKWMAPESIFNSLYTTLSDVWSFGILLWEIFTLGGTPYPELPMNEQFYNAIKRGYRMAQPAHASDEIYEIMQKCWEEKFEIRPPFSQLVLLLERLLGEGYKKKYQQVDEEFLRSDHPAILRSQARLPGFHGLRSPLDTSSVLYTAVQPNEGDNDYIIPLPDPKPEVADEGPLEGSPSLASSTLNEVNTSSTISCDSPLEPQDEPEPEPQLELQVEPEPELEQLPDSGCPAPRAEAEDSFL

[2] = biological target: T1, Platelet-derived growth factor receptor beta; assay: Inhibition of PDGFRbeta (unknown origin) by caliper mobility shift assay
[3] = biological target: T2, Platelet-derived growth factor receptor alpha (Homo sapiens, UniProt P16234); conditions: dose 100.0 nM
T2 sequence (P16234 whole entry): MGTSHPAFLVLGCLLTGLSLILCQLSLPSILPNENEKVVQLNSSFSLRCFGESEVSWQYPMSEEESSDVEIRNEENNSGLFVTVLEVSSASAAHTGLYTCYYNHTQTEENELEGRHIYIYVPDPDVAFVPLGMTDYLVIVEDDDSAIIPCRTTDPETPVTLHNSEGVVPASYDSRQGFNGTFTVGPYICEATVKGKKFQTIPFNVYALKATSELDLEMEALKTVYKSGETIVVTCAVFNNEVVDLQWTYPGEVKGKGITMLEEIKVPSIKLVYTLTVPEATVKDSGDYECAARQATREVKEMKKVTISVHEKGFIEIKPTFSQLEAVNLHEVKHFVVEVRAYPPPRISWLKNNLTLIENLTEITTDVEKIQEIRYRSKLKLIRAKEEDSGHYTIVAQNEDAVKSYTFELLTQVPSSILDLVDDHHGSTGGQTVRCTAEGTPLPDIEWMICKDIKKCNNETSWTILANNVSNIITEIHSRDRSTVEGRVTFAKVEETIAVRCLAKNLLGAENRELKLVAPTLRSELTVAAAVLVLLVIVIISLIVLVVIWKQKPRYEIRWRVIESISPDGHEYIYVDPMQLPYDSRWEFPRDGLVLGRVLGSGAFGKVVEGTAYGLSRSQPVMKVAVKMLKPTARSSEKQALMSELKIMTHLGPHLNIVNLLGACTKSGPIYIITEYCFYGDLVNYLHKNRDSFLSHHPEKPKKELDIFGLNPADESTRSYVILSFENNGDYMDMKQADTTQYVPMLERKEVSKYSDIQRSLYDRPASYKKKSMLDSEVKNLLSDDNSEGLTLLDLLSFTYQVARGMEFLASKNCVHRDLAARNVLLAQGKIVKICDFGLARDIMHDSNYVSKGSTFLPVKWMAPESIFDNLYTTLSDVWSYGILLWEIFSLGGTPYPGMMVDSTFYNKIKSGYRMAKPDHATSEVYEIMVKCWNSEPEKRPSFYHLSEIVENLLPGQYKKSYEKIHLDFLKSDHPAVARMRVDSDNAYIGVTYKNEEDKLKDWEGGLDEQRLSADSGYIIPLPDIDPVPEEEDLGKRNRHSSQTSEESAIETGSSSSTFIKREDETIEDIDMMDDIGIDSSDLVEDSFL
Description: Inhibition of PDGFRalpha (unknown origin) at 100 nM by caliper mobility shift assay relative to control

[4] = Toxicity in C57/BL6 mouse assessed as change in heart weight at 40 to 80 mg/kg/day, po dosed for 10 days; type: organism-based; conditions: in vivo, 240 h, dose 40-80 mg/kg/day, time 10 day
[5] = Cmax in Sprague-Dawley rat at 4 mg/kg, ip measured at 0.08 to 8 hrs by UHPLC-MS/MS analysis; type: ADME, organism-based; design: time lower 0.08 hrs, dose 4 mg/kg, time upper 8 hrs, route ip; conditions: in vivo
[6] = Cmax in Sprague-Dawley rat at 20 mg/kg, po measured at 0.033 to 48 hrs by UHPLC-MS/MS analysis; type: ADME, organism-based; design: dose 20 mg/kg, time upper 48 hrs, time lower 0.033 hrs, route po; conditions: in vivo
[7] = Half life in Sprague-Dawley rat at 4 mg/kg, ip measured at 0.08 to 8 hrs by UHPLC-MS/MS analysis; type: ADME, organism-based; conditions: in vivo, time 0.08-8 hrs
[8] = Half life in Sprague-Dawley rat at 20 mg/kg, po measured at 0.033 to 48 hrs by UHPLC-MS/MS analysis; type: ADME, organism-based; conditions: in vivo, time 0.033-48 hrs
[9] = AUC(0 to infinity) in Sprague-Dawley rat at 4 mg/kg, ip measured at 0.08 to 8 hrs by UHPLC-MS/MS analysis; type: ADME, organism-based; design: dose 4 mg/kg, time 0.08-8 hrs, route ip; conditions: in vivo
[10] = AUC(0 to infinity) in Sprague-Dawley rat at 20 mg/kg, po measured at 0.033 to 48 hrs by UHPLC-MS/MS analysis; type: ADME, organism-based; design: dose 20 mg/kg, time 0.033-48 hrs, route po; conditions: in vivo
[11] = Oral bioavailability in Sprague-Dawley rat at 20 mg/kg measured at 0.033 to 48 hrs by UHPLC-MS/MS analysis; type: ADME, organism-based; conditions: in vivo, time 0.033-48 hrs
[12] = Toxicity in C57/BL6 mouse assessed as tolerability at 40 to 80 mg/kg/day, po dosed for 10 days; type: organism-based; conditions: in vivo, 240 h, dose 40-80 mg/kg/day, time 10 day
[13] = Toxicity in C57/BL6 mouse assessed as change in body weight at 40 to 80 mg/kg/day, po dosed for 10 days; type: organism-based; conditions: in vivo, 240 h, dose 40-80 mg/kg/day, time 10 day
[14] = Toxicity in C57/BL6 mouse assessed as change in lung weight at 40 to 80 mg/kg/day, po dosed for 10 days; type: organism-based; conditions: in vivo, 240 h, dose 40-80 mg/kg/day, time 10 day
[15] = Toxicity in C57/BL6 mouse assessed as change in liver weight at 40 to 80 mg/kg/day, po dosed for 10 days; type: organism-based; conditions: in vivo, 240 h, dose 40-80 mg/kg/day, time 10 day
[16] = Toxicity in C57/BL6 mouse assessed as change in spleen weight at 40 to 80 mg/kg/day, po dosed for 10 days; type: organism-based; conditions: in vivo, 240 h, dose 40-80 mg/kg/day, time 10 day
[17] = Toxicity in C57/BL6 mouse assessed as change in kidney weight at 40 to 80 mg/kg/day, po dosed for 10 days; type: organism-based; conditions: in vivo, 240 h, dose 40-80 mg/kg/day, time 10 day
[18] = Hepatotoxicity in C57/BL6 mouse assessed as effect on alanine aminotransferase level at 40 to 80 mg/kg/day, po dosed for 10 days by liver function test; type: toxicity, organism-based; conditions: in vivo, 240 h, dose 40-80 mg/kg/day, time 10 day
[19] = Hepatotoxicity in C57/BL6 mouse assessed as effect on aspartate aminotransferase level at 40 to 80 mg/kg/day, po dosed for 10 days by liver function test; type: toxicity, organism-based; conditions: in vivo, 240 h, dose 40-80 mg/kg/day, time 10 day
[20] = Nephrotoxicity in C57/BL6 mouse assessed as effect on creatinine level at 40 to 80 mg/kg/day, po dosed for 10 days by kidney function test; type: toxicity, organism-based; conditions: in vivo, 240 h, dose 40-80 mg/kg/day, time 10 day
[21] = Toxicity in C57/BL6 mouse assessed as histopathological change in kidney at 40 to 80 mg/kg/day, po dosed for 10 days by Hematoxylin and eosin based staining analysis; type: organism-based; conditions: in vivo, 240 h, dose 40-80 mg/kg/day, time 10 day
[22] = Toxicity in C57/BL6 mouse assessed as histopathological change in liver at 40 to 80 mg/kg/day, po dosed for 10 days by Hematoxylin and eosin based staining analysis; type: organism-based; conditions: in vivo, 240 h, dose 40-80 mg/kg/day, time 10 day
[23] = Toxicity in BALB/c nude mouse xenograted with human MNNG/HOS cells assessed as effect on body weight at 15 to 30 mg/kg/day, po dosed for 14 days; type: organism-based, HOS-TE85; conditions: in vivo, 336 h, dose 15-30 mg/kg/day, time 14 day
[24] = Toxicity in BALB/c nude mouse xenograted with human MNNG/HOS cells assessed as effect on heart weight at 15 to 30 mg/kg/day, po dosed for 14 days; type: organism-based, HOS-TE85; conditions: in vivo, 336 h, dose 15-30 mg/kg/day, time 14 day
[25] = Toxicity in BALB/c nude mouse xenograted with human MNNG/HOS cells assessed as effect on lung weight at 15 to 30 mg/kg/day, po dosed for 14 days; type: organism-based, HOS-TE85; conditions: in vivo, 336 h, dose 15-30 mg/kg/day, time 14 day
[26] = Toxicity in BALB/c nude mouse xenograted with human MNNG/HOS cells assessed as effect on liver weight at 15 to 30 mg/kg/day, po dosed for 14 days; type: organism-based, HOS-TE85; conditions: in vivo, 336 h, dose 15-30 mg/kg/day, time 14 day
[27] = Toxicity in BALB/c nude mouse xenograted with human MNNG/HOS cells assessed as effect on spleen weight at 15 to 30 mg/kg/day, po dosed for 14 days; type: organism-based, HOS-TE85; conditions: in vivo, 336 h, dose 15-30 mg/kg/day, time 14 day
[28] = Toxicity in BALB/c nude mouse xenograted with human MNNG/HOS cells assessed as effect on kidney weight at 15 to 30 mg/kg/day, po dosed for 14 days; type: organism-based, HOS-TE85; conditions: in vivo, 336 h, dose 15-30 mg/kg/day, time 14 day
[29] = Toxicity in BALB/c nude mouse xenograted with human MNNG/HOS cells assessed as morphological change in liver at 15 to 30 mg/kg/day, po for 14 days by hematoxylin and eosin staining method; type: organism-based, HOS-TE85; conditions: in vivo, 336 h, dose 15-30 mg/kg/day, time 14 day
[30] = Toxicity in BALB/c nude mouse xenograted with human MNNG/HOS cells assessed as morphological change in kidney at 15 to 30 mg/kg/day, po for 14 days by hematoxylin and eosin staining method; type: organism-based, HOS-TE85; conditions: in vivo, 336 h, dose 15-30 mg/kg/day, time 14 day
U2OS = assay: Antiproliferative activity against human U2OS cells assessed as reduction in cell viability incubated for 48 hrs by MTT assay
CYP2C19 = assay: Inhibition of CYP2C19 in rat liver microsomes at 100 uM using voriconazole as substrate preincubated for 5 min followed by NADPH addition and measured after 40 mins by UHPLC-MS/MS analysis; type: ADME, Microsome; conditions: probe voriconazole, time 45 min
MG-63 = assay: Antiproliferative activity against human MG-63 cells assessed as reduction in cell viability incubated for 48 hrs by MTT assay; conditions: MG-63, 48 h
HOS-TE85 = assay: Antiproliferative activity against human MNNG/HOS cells assessed as reduction in cell viability incubated for 48 hrs by MTT assay; conditions: HOS-TE85, 48 h
SAOS-2 = assay: Antiproliferative activity against human SAOS-2 cells assessed as reduction in cell viability incubated for 48 hrs by MTT assay; conditions: SAOS-2, 48 h
[31] = biological target: T2, Platelet-derived growth factor receptor alpha; assay: Inhibition of PDGFRalpha (unknown origin) by caliper mobility shift assay
CYP2C9 = assay: Inhibition of CYP2C9 in rat liver microsomes at 100 uM using diclofenac as substrate preincubated for 5 min followed by NADPH addition and measured after 40 mins by UHPLC-MS/MS analysis; type: ADME, Microsome; conditions: probe diclofenac, time 45 min

Structure (SMILES): Cc1cnc(Nc2ccc(N3CCN(C)CC3)cc2)nc1Nc1ccc2c(c1)CCCC2
inhibition [1]: 90.4%

Structure (SMILES): Cc1cnc(Nc2ccc(C(=O)NCCN3CCOCC3)cc2)nc1Nc1ccc2cn[nH]c2c1
IC50 [2]: 15.9 nM

Structure (SMILES): CN1CCN(c2ccc(Nc3ncc(Br)c(Nc4ccc5cn[nH]c5c4)n3)cc2)CC1
inhibition [1]: 97.6%
inhibition [3]: 89.9%

Structure (SMILES): Cc1cnc(Nc2ccc(N3CCN(C)CC3)cc2)nc1Nc1ccc2c(C)n[nH]c2c1
inhibition [1]: 98%

Structure (SMILES): CCN1CCN(c2ccc(Nc3ncc(C)c(Nc4ccc5cn[nH]c5c4)n3)cc2OC)CC1.Cl
Activity [4]: Non-Toxic
Cmax [5]: 78.3 ng/mL
Cmax [6]: 75.2 ng/mL
half-life [7]: 2.86 h
half-life [8]: 2.12 h
AUC(0-inf) [9]: 211 ng·h/mL
AUC(0-inf) [10]: 665 ng·h/mL
bioavailability [11]: 62.9%
Activity [12]: Non-Toxic
Activity [13]: Non-Toxic
Activity [14]: Non-Toxic
Activity [15]: Non-Toxic
Activity [16]: Non-Toxic
Activity [17]: Non-Toxic
Activity [18]: Non-Toxic
Activity [19]: Non-Toxic
Activity [20]: Non-Toxic
Activity [21]: Non-Toxic
Activity [22]: Non-Toxic
Activity [23]: Non-Toxic
Activity [24]: Non-Toxic
Activity [25]: Non-Toxic
Activity [26]: Non-Toxic
Activity [27]: Non-Toxic
Activity [28]: Non-Toxic
Activity [29]: Non-Toxic
Activity [30]: Non-Toxic

Structure (SMILES): COc1cc(N2CCC(N3CCN(C)CC3)CC2)ccc1Nc1ncc(C)c(Nc2ccc3cn[nH]c3c2)n1
IC50 [2]: 55.6 nM

Structure (SMILES): CCN1CCN(c2ccc(Nc3ncc(C)c(Nc4ccc5cn[nH]c5c4)n3)cc2OC)CC1
IC50 (U2OS): 420 nM
inhibition at 40 min, 100 µM (CYP2C19): 45.6%
IC50 (MG-63): 440 nM
IC50 (HOS-TE85): 1030 nM
IC50 (SAOS-2): 370 nM
IC50 [31]: 2.4 nM
IC50 [2]: 0.9 nM
inhibition at 40 min, 100 µM (CYP2C9): 45.6%

Structure (SMILES): Cc1cnc(Nc2ccc(N3CCS(=O)(=O)CC3)cc2)nc1Nc1ccc2cn[nH]c2c1
IC50 [2]: 40.9 nM

Structure (SMILES): Cc1cnc(Nc2ccc(N3CCN(C)CC3)cc2)nc1Nc1ccc2[nH]ncc2c1
inhibition [1]: 84.1%

Structure (SMILES): Cc1cnc(Nc2ccc(N3CCN(C)CC3)cc2)nc1Nc1cccc2[nH]ccc12
inhibition [1]: 90.3%

Structure (SMILES): Cc1cnc(Nc2ccc(N3CCN(C)CC3)cc2)nc1Nc1ccc2cn[nH]c2c1
inhibition [1]: 99.6%

Further lines, results first:

IC50 [2]: 90.9 nM
Structure (SMILES): Cc1cnc(Nc2ccc(N3CCC(F)(F)CC3)cc2)nc1Nc1ccc2cn[nH]c2c1

inhibition [1]: 91%
Structure (SMILES): Cc1cnc(Nc2ccc(N3CCN(C)CC3)cc2)nc1Nc1ccc2cccnc2c1

inhibition [1]: 81%
Structure (SMILES): CN1CCN(c2ccc(Nc3ncc(C(F)(F)F)c(Nc4ccc5cn[nH]c5c4)n3)cc2)CC1

inhibition [1]: 55%
Structure (SMILES): COc1cnc(Nc2ccc(N3CCN(C)CC3)cc2)nc1Nc1ccc2cn[nH]c2c1

IC50 [2]: 110 nM
Structure (SMILES): Cc1cnc(Nc2ccc(N3CCNCC3)cc2)nc1Nc1ccc2cn[nH]c2c1

inhibition [1]: 71.1%
Structure (SMILES): Cc1cnc(Nc2ccc(N3CCN(C)CC3)cc2)nc1Nc1ccc2nn(CCNC(=O)OC(C)(C)C)cc2c1
